From ChEMBL document CHEMBL1151617, “Antitumor agents, 65. Brusatol and cleomiscosin-A, antileukemic principles from Brucea javanica” (1984) come the findings set out here.

Values after ≈ are worked out from the molar mass of the structure shown.

Common to all, as to type: functional
Assay [1] concerns P388. The assay is described as follows: In vivo antitumor activity against mouse P388 cells at 0.125 ug/kg/day, ip.
The subject of assay [2] is P388. Put plainly: Cytotoxicity against mouse P388 cells. As to conditions: read-out: ED50 (the source's name).
The subject of another assay is KB. The assay is described as follows: Cytotoxicity against human KB cells. As to conditions: read-out: ED50 (the source's name).

In turn, `COC(=O)[C@]12OC[C@]34[C@H]([C@@H](O)[C@@H]1O)[C@@]1(C)CC(=O)C(O)=C(C)[C@@H]1C[C@H]3OC(=O)[C@H](OC(=O)C=C(C)C)[C@@H]24` [BRUSATOL] returned a T/C in the assay on P388 [1] of 158%. For `COc1cc([C@H]2Oc3c(OC)cc4ccc(=O)oc4c3O[C@@H]2CO)ccc1O` [CLEOMISCOSIN A], the EC50 is 0.4 µg/mL (≈ 1.04 µM) in the assay on P388 [2] and > 10 µg/mL in the assay with KB.

As a reminder, the T/C is the result in the treated group divided by that in the control group, in per cent.
